# Measurements from US7781591B2, “Substituted 3-cyanopyridines as protein kinase inhibitors” (Wyeth LLC, priority 2006, dated 2010).
# pIC50: −log10 of the molar value.
# Molecular target: T1, human PKCθ full length enzyme (Homo sapiens, UniProt Q04759)
# T1 construct: human PKCθ full length enzyme (Panvera Cat# P2996); purchased Panvera P2996
# Assay: PKCθ IMAP assay (fluorescence polarization)
# Type: biochemical
# Conditions: human PKCθ full length enzyme, IMAP; average value; read-out: IC50 PKCθ IMAP
# T1 sequence (Q04759 whole entry): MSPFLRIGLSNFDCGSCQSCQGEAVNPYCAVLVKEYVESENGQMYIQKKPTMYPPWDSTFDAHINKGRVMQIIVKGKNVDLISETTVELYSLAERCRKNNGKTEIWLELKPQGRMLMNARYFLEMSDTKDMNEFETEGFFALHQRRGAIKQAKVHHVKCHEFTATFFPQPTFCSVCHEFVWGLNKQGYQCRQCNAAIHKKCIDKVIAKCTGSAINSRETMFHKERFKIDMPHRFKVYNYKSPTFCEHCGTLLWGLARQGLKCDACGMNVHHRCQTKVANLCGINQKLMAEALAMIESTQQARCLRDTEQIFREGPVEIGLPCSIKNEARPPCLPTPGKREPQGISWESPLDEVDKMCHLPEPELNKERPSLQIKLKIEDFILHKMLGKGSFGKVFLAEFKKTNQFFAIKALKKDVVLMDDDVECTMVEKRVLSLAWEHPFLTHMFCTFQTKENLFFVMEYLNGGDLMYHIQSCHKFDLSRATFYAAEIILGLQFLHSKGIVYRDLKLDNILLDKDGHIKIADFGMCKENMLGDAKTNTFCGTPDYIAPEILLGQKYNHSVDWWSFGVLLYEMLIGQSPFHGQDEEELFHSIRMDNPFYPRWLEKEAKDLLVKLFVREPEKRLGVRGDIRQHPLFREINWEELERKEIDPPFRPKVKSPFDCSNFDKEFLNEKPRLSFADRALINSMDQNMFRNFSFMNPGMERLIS
row,SMILES,pIC50
1,"CN(C)c1cccc(-c2cncc(C#N)c2Nc2cccc3[nH]ccc23)c1 [Compound 254, 5-[3-(dimethylamino)phenyl]-4-(1H-indol-4-ylamino)nicotinonitrile]",7.10
2,"CS(=O)(=O)c1cccc(-c2cncc(C#N)c2Nc2cccc3[nH]ccc23)c1 [Compound 255, 4-(1H-indol-4-ylamino)-5-[3-(methylsulfonyl)phenyl]nicotinonitrile]",7.10
3,"N#Cc1cncc(-c2ccsc2)c1Nc1ccc2[nH]ccc2c1 [Compound 258, 4-(1H-indol-5-ylamino)-5-(3-thienyl)nicotinonitrile]",7.00
4,"N#Cc1cncc(-c2cccnc2)c1Nc1ccc2[nH]ccc2c1 [Compound 259, 4-(1H-indol-5-ylamino)-3,3′-bipyridine-5-carbonitrile]",5.86
5,"N#Cc1cncc(-c2ccc3c(c2)OCO3)c1Nc1ccc2[nH]ccc2c1 [Compound 260, 5-(1,3-benzodioxol-5-yl)-4-(1H-indol-5-ylamino)nicotinonitrile]",7.15
6,"N#Cc1cncc(-c2ccncc2)c1Nc1ccc2[nH]ccc2c1 [Compound 261, 4-(1H-indol-5-ylamino)-3,4′-bipyridine-5-carbonitrile]",7.10
7,"N#Cc1cncc(-c2ccc3[nH]ccc3c2)c1Nc1ccc2[nH]ccc2c1 [Compound 263, 5-(1H-indol-5-yl)-4-(1H-indol-5-ylamino)nicotinonitrile]",7.30
8,"N#Cc1cncc(-c2ccc3c(c2)OCCO3)c1Nc1ccc2[nH]ccc2c1 [Compound 264, 5-(2,3-dihydro-1,4-benzodioxin-6-yl)-4-(1H-indol-5-ylamino)nicotinonitrile]",7.22
9,"N#Cc1cncc(-c2cccs2)c1Nc1ccc2[nH]ccc2c1 [Compound 267, 4-(1H-indol-5-ylamino)-5-(2-thienyl)nicotinonitrile]",7.00
10,"N#Cc1cncc(-c2cc3ccccc3o2)c1Nc1ccc2[nH]ccc2c1 [Compound 268, 5-(1-benzofuran-2-yl)-4-(1H-indol-5-ylamino)nicotinonitrile]",8.00
11,"Cc1noc(C)c1-c1cncc(C#N)c1Nc1ccc2[nH]ccc2c1 [Compound 269, 5-(3,5-dimethylisoxazol-4-yl)-4-(1H-indol-5-ylamino)nicotinonitrile]",4.96
12,"N#Cc1cncc(-c2cccc(CO)c2)c1Nc1cccc2[nH]ccc12 [Compound 270, 5-[3-(hydroxymethyl)phenyl]-4-(1H-indol-4-ylamino)nicotinonitrile]",7.70
13,"CN(C)Cc1cccc(-c2cncc(C#N)c2Nc2cccc3[nH]ccc23)c1 [Compound 271, 5-{3-[(dimethylamino)methyl]phenyl}-4-(1H-indol-4-ylamino)nicotinonitrile]",7.00
14,"C#CCNCc1ccc2sc(-c3cncc(C#N)c3Nc3cccc4[nH]ccc34)cc2c1 [Compound 272, 4-(1H-indol-4-ylamino)-5-{5-[(prop-2-yn-1-ylamino)methyl]-1-benzothien-2-yl}nicotinonitrile]",8.40
15,"CCCCNCc1ccc2sc(-c3cncc(C#N)c3Nc3cccc4[nH]ccc34)cc2c1 [Compound 273, 5-{5-[(butylamino)methyl]-1-benzothien-2-yl}-4-(1H-indol-4-ylamino)nicotinonitrile]",8.70
16,"N#Cc1cncc(-c2cc3cc(CNCCO)ccc3s2)c1Nc1cccc2[nH]ccc12 [Compound 274, 5-(5-{[(2-hydroxyethyl)amino]methyl}-1-benzothien-2-yl)-4-(1H-indol-4-ylamino)nicotinonitrile]",8.70
17,"N#Cc1cncc(-c2cc3cc(CNCCCO)ccc3s2)c1Nc1cccc2[nH]ccc12 [Compound 275, 5-(5-{[(3-hydroxypropyl)amino]methyl}-1-benzothien-2-yl)-4-(1H-indol-4-ylamino)nicotinonitrile]",8.70
18,"COCCCNCc1ccc2sc(-c3cncc(C#N)c3Nc3cccc4[nH]ccc34)cc2c1 [Compound 276, 4-(1H-indol-4-ylamino)-5-(5-{[(3-methoxypropyl)amino]methyl}-1-benzothien-2-yl)nicotinonitrile]",8.70
19,"N#Cc1cncc(-c2cc3cc(CNCCCCO)ccc3s2)c1Nc1cccc2[nH]ccc12 [Compound 277, 5-(5-{[(4-hydroxybutyl)amino]methyl}-1-benzothien-2-yl)-4-(1H-indol-4-ylamino)nicotinonitrile]",8.52
20,"N#Cc1cncc(-c2cc3cc(CNC4CC4)ccc3s2)c1Nc1cccc2[nH]ccc12 [Compound 278, 5-{5-[(cyclopropylamino)methyl]-1-benzothien-2-yl}-4-(1H-indol-4-ylamino)nicotinonitrile]",8.70
21,"N#Cc1cncc(-c2cc3cc(CNCC4CC4)ccc3s2)c1Nc1cccc2[nH]ccc12 [Compound 279, 5-(5-{[(cyclopropylmethyl)amino]methyl}-1-benzothien-2-yl)-4-(1H-indol-4-ylamino)nicotinonitrile]",9.00
22,"N#Cc1cncc(-c2cc3cc(CN4CCOCC4)ccc3s2)c1Nc1cccc2[nH]ccc12 [Compound 281, 4-(1H-indol-4-ylamino)-5-[5-(morpholin-4-ylmethyl)-1-benzothien-2-yl]nicotinonitrile]",8.00

# More lines, in order of rising pIC50, values ahead:
row,pIC50,SMILES
1,5.41,"N#Cc1cncc(-c2cncnc2)c1Nc1ccc2[nH]ccc2c1 [Compound 265, 4-(1H-indol-5-ylamino)-5-pyrimidin-5-ylnicotinonitrile]"
2,5.84,"COc1ncc(-c2cncc(C#N)c2Nc2ccc3[nH]ccc3c2)cn1 [Compound 266, 4-(1H-indol-5-ylamino)-5-(2-methoxypyrimidin-5-yl)nicotinonitrile]"
3,6.92,"N#Cc1cncc(-c2ccoc2)c1Nc1ccc2[nH]ccc2c1 [Compound 262, 5-(3-furyl)-4-(1H-indol-5-ylamino)nicotinonitrile]"
4,7.00,"N#Cc1cncc(-c2ccccc2)c1Nc1ccc2[nH]ccc2c1 [Compound 257, 4-(1H-indol-5-ylamino)-5-phenylnicotinonitrile]"
5,7.70,"CS(=O)(=O)Nc1cccc(-c2cncc(C#N)c2Nc2cccc3[nH]ccc23)c1 [Compound 256, N-{3-[5-cyano-4-(1H-indol-4-ylamino)pyridin-3-yl]phenyl}methanesulfonamide]"
6,8.40,"N#Cc1cncc(-c2cc3cc(CN4CCCC4)ccc3s2)c1Nc1cccc2[nH]ccc12 [Compound 280, 4-(1H-indol-4-ylamino)-5-[5-(pyrrolidin-1-ylmethyl)-1-benzothien-2-yl]nicotinonitrile]"
7,8.40,"N#Cc1cncc(-c2cc3cc(CN4CCC(CO)CC4)ccc3s2)c1Nc1cccc2[nH]ccc12 [Compound 284, 5-(5-{[4-(hydroxymethyl)piperidin-1-yl]methyl}-1-benzothien-2-yl)-4-(1H-indol-4-ylamino)nicotinonitrile]"
8,8.40,"N#Cc1cncc(-c2cc3cc(CO)ccc3s2)c1Nc1cccc2[nH]ccc12 [Compound 285, 5-[5-(hydroxymethyl)-1-benzothien-2-yl]-4-(1H-indol-4-ylamino)nicotinonitrile]"
9,8.52,"N#Cc1cncc(-c2cc3cc(CNCCN4CCOCC4)ccc3s2)c1Nc1cccc2[nH]ccc12 [Compound 282, 4-(1H-indol-4-ylamino)-5-(5-{[(2-morpholin-4-ylethyl)amino]methyl}-1-benzothien-2-yl)nicotinonitrile]"
10,8.70,"N#Cc1cncc(-c2cc3cc(CN4CCCCC4)ccc3s2)c1Nc1cccc2[nH]ccc12 [Compound 283, 4-(1H-indol-4-ylamino)-5-[5-(piperidin-1-ylmethyl)-1-benzothien-2-yl]nicotinonitrile]"
